Results on three molecules are retold here after paper PMC9122897, “SHR1032, a novel STING agonist, stimulates anti-tumor immunity and directly induces AML apoptosis” (Scientific Reports, 2022).

Molecules are shown by their SMILES. Read-outs that look alike come from different tables or passages of the source.

What is called GI50 is the concentration that inhibits growth by half. Low values mean greater sensitivity of the cells, high ones lower sensitivity of the cells. The EC50 is the concentration that produces a half-maximal response.

One test concerns THP1-STING-KO cells. Put plainly: CellTiter-Glo cell growth. It counts as cell-based, human. As to the method:
(§1) (a–d) AML cells were treated with STING agonists and standard of care cytarabine, and cell viability was measured by CellTiter Glo in (a) THP1-STING-R232, (b) THP1-STING-KO, (c) MV-4-11 and (d) MOLM-16. (e) MV-4-11, MOLM-16 and THP1-STING-KO cells were stimulated with 1 µM of SHR1032 for the indicated time points. The amount of pTBK1, total TBK1, pSTING, total STING and α-tubulin was measured by Western blot. pSTING phosphorylated STING. THP1 reporter cells were treated for 24 h with a total of 100 k cells and 150 ul media in each well a 96-well plate. Following the incubation, 20 µl of supernatant was transferred to an opaque 96 well ½ area plate and incubated for 30 s with 50 µl of QUANTI-Luc substrate (InvivoGen) per manufacturer’s instructions. Luminescence signal was measured using Tecan infinite M1000. EC50 values were calculated using non-linear regression analysis of GraphPad Prism. Cell growth was monitored by CellTiter-Glo Luminescent Cell Viability Assay (Promega) per manufacture’s protocol. GI50 values were calculated using non-linear regression analysis of GraphPad Prism. Cell lysates for western blotting were made in RIPA buffer (Sigma) with Halt Protease and Phosphatase Inhibitors (Thermo Scientific). Antibodies against pSTING, TBK1, pTBK1 and tubulin were purchased from Cell Signaling Technologies, and anti-STING was purchased from Protein Tech.
In general terms: In ATP-based viability assays light output follows the ATP content of the culture.

The test system of another test is THP1-STING-R232 cells. Put plainly: CellTiter-Glo cell growth. It counts as cell-based, human. The method, then:
as §1

For test [1], the system named is MC38 mouse syngeneic colorectal adenocarcinoma. Put plainly: MC38 syngeneic tumor model. It counts as in vivo, C57BL/6 mouse. Conditions: 50 µg intratumorally on day 1, 5, 8; after 21 days since the first dosing. The method, then: Figure 3 Robust cytokine induction and antitumor effects in vivo. (a,b) C57BL/6 mice were inoculated with mouse MC38 colon cancer cells in the left flank. When tumor volumes were 100 mm^3, they received intratumoral (IT) dose of 100 µg of SHR1032 on day 1, 5, 8 and 12 or IT dose of 50 µg ADU-S100 on day 1, 5, and 8, or vehicle, respectively. (a) Tumor volume was measured at different time points. Results are shown as mean tumor volume ± sem. (n = 8 animals per group). (b) Mouse bodyweight was measured at different time points. (c–f) C57BL/6 mice were inoculated with mouse MC38 colon cancer cells in the left flank. When tumor volumes were 100 mm^3, they received one IT dose of 100 µg of SHR1032 or 50 µg ADU-S100, or vehicle. (c) IFNβ, (d) IL-6 and (e) TNFα from both tumor and plasma was measured by ELISA 4 h after. (f) SHR1032 compound concentration in tumors were measured.
Human and Cynomolgous PBMC’s were thawed and spun down in Lymphocyte media (ZENBIO) and resuspended in media to 1.5 x 10^6 cells/ml density. Mouse RAW 264.7 cells were detached from the flask and resuspended in media to 1.5 x 10^6 cells/ml density. Then, 100 µl of media containing the cells was added to each well of a 96-well plate containing compound in 50 µl of media. Plates were incubated for 5 h at 37 °C and supernatant was collected for ELISA analysis. Human and monkey IFN-β protein concentration was measured using human IFN-β Quantikine ELISA Kits (R&D Systems) per manufacture’s protocol. Mouse IFN-β was measured using mouse IFN-β Quantikine ELISA Kits (R&D Systems) per manufacture’s protocol. Mouse TNFα, IFN-β and IL-6 in the tumor lysates and plasma was measured by Quantikine ELISA Kits (R&D Systems) per manufacture’s protocol.
Female C57BL/6 mice, aged between 8 and 10 weeks old, were purchased from Charles River Lab. MC38 mouse colorectal cancer cells were resuspended as single cell solution in PBS at a concentration of 5 × 10^6 cells/ml. One hundred µl of cell suspension were implanted in the right flank of mice subcutaneously. Tumor size was measured by a caliper in three dimensions and its volume was then calculated according to the following formula: Tumor Volume (mm^3) = l * w * h * 0.5236, where l = length, w = width and h = height in mm for a tumor. When the average tumor volume reached around 100 mm^3, the mice were randomly assigned into three groups (n = 8) and each group of mice received one regimen. This day was assigned as day 0 for the study. […] Tumor volume and body weight were measured 3 times per week throughout the study. […] Cytokines and SHR1032 concentration in the plasma and tumor tissues were analyzed. […]

The target in a further test is T1, human STING (Homo sapiens, UniProt Q86WV6).
T1 construct: made in house; host or cells: E. coli
Nature of the test: Thermal shift assay. It counts as binding. Conditions: human STING protein 5 uM; ligand bound vs apo. The source says:
(§2) We sought to develop small molecule compounds with increased STING agonist activity against human STING. GSK reported a series of non-CDN small molecules, represented by compound 1[13], with good human STING agonistic activity. Based on our molecular modeling analysis, along with the reported CDN-STING crystal structures, we designed a novel series of fused tricyclic heterocycle compounds and analyzed their binding to human STING with thermal shift assays and the potency in activation of STING signaling with a reporter cellular assay (Supplementary Table S1). Thermal shift assays measure the difference between apo STING and ligand bound STING in the inflection point at which 50% of protein is thermally unfolded (ΔTm). […] The ability of compounds to activate the IRF reporter gene in the THP1 cells was also evaluated.
The melting temperature (Tm) of human STING was determined by calculating the temperature at the inflection point of the thermal melt curve generated on a Roche LightCycler 480 using 384 plate format and 465–590 nm filter set. […] Florescence was measured while ramping the plate temperature from 20 to 95 °C and the resulting data was processed using ROCHE data analysis software. Delta Tms were calculated by subtracting the Tm of untreated protein from ligand treated samples. […]

In another test the test system is THP1 reporter cells. Put plainly: THP1 IRF luciferase reporter assay. It counts as cell-based. Conditions: Homo sapiens, THP-1; IRF Lucia luciferase reporter, 24 h; read-out: THP1 reporter cell EC50.
Source text: as §2
THP1 reporter cells were treated for 24 h with a total of 100 k cells and 150 ul media in each well a 96-well plate. […] Luminescence signal was measured using Tecan infinite M1000. EC50 values were calculated using non-linear regression analysis of GraphPad Prism. Cell growth was monitored by CellTiter-Glo Luminescent Cell Viability Assay (Promega) per manufacture’s protocol. GI50 values were calculated using non-linear regression analysis of GraphPad Prism. […]

A further test has as its system MOLM-16 cells. Put plainly: CellTiter-Glo cell growth. It counts as cell-based. As to conditions: Homo sapiens, MOLM16; MOLM-16, CellTiter Glo. As to the method: as §1
A further test has as its system MV4-11 cells. Put plainly: CellTiter-Glo cell growth. As to conditions: Homo sapiens; MV4-11, CellTiter Glo. Format: cell-based. The method, then:
as §1

T1 sequence (Q86WV6 155-341 limits assumed): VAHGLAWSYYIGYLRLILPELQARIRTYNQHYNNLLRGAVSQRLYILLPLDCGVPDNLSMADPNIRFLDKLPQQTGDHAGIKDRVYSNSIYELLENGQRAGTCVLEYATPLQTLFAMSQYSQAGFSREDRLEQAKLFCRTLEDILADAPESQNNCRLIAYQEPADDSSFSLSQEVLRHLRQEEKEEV

`Nc1ncnc2c1ncn2[C@@H]1O[C@@H]2COP(=O)([S-])O[C@@H]3[C@H](O)[C@@H](COP([O-])(=S)O[C@H]2[C@H]1O)O[C@H]3n1cnc2c(N)ncnc21.[Na+].[Na+]` (some centres unmarked) [ADU-S100, reference compound]: the cell growth inhibition result with THP1-STING-KO cells is “not detectable”. This molecule registered a GI50 in the test with THP1-STING-R232 cells of 9.44 µM. The tumor response entry in test [1] is “complete tumor regression”.

`C=CC[C@H]1COc2cc(C(N)=O)cc3nc(NC(=O)c4cc(C)nn4CC)n1c23` [Compound 2]: the “Thermal shift ∆Tm” value at human STING was 5.7 °C. In addition, in the test on THP1 reporter cells, the EC50 amounted to 1600 nM.

Regarding `Nc1ccn([C@@H]2O[C@H](CO)[C@@H](O)[C@@H]2O)c(=O)n1` [cytarabine, reference compound], the GI50 with THP1-STING-R232 cells (Homo sapiens) was determined as 0.1 µM; with MOLM-16 cells it was 450 nM; in the test on MV4-11 cells it was 340 nM.
